Laboratory results taken from patent US20030186464A1, “Surface plasmon resonance methods” (priority 2002, published 2003).
Read-outs that look alike come from different tables or passages of the source.

Assays:
[1] = target: T1, immobilized IL-2 (Homo sapiens, UniProt P60568); assay: Double ligand SPR on immobilized interleukin-2 (Examples 9-11); format: binding
T1 construct: made in house; host or cells: E. coli
Procedure: A CM5 sensor chip (Biacore-BR-1000-14) is docked in a Biacore 2000 SPR device and normalized using a standard Biacore protocol with 70% glycerol. The chip is next equilibrated in PBS for approximately 1 hr at a 20 μL/min flow rate. The dextran surface of the chip is activated through an NHS/EDC coupling. This coupling is done using an amine coupling kit (Biacore—BR-100-50) containing N-hydroxysuccinimide (NHS 11.5 mg/mL) and N-ethyl-N′-(3-dimethylaminopropyl) carbodiimide hydrochloride (EDC 75 mg/mL). First, the two reagents are mixed in a 1:1 ratio and then 35 μL of the mixture are injected at 5 μL/min. The chip is activated one flow cell at a time, and that flow cell is subsequently labeled with protein.
IL-2 is expressed in E. coli cells and purified using standard procedures. Protein is then concentrated to 100 μM and the buffer is exchanged to 100 mM MES pH 5.75 (Nap-5 column, Pierce). A sensorgram is then run over the activated flow cell at 2,L/min of PBS. The IL-2 solution is then injected at 2 μL/min for 10 min. After injection the change in RUs is measured by marking the RUs at t=0 and t=final and subtracting. This gives the total RU change, which is related to the total mass of protein successfully coupled to the CM5 surface. The total mass will later be used to determine stoichiometry of binding. This procedure is then repeated with another arbitrary protein to create a measure for nonspecific binding. The arbitrary protein is immobilized on an adjacent cell. […] The sensorgram is then altered to flow across all four cells on the CM5 chip at 5 μL/min PBS. A solution of 1 M ethanolamine hydrochloride-NaOH pH 8.5 (Amine coupling kit, Biacore-BR-100-50) is injected at 5 μL/min for 7 min. Proteins are immobilized at densities of 100-160 fmol/mm^2. The chip is equilibrated overnight in PBS+0.05% azide+2% DMSO at 20 μL/min.
In this experiment, variable concentrations of a compound are tested at a constant concentration of another compound. The compound held constant is 2c, for example (structure shown in Example 2). To determine appropriate constant concentrations for 2c, a compound titration is first performed. Dilution series of the compounds are typically performed to produce seven solutions having final compound concentrations of 30 mM, 10 mM, 3.3 mM, 1.1 mM, 0.37 mM, 0.12 mM, and 0.041 mM; an eighth solution is a DMSO-only baseline. The compounds are then diluted into PBS+0.05% azide to final concentrations of 300 μM, 100 μM, 33 μM, 11 μM, 3.7 μM, 1.2 μM, 0.41 μM. The compound solutions are injected from lowest concentration to highest at 40 μL/min for 1 min. The SPR software method includes a 1 min wash before injection, the injection and then a 3 min wash after the injection.
These dilution series are analyzed by BIAevaluation software version 3.0. Sensorgrams are plotted for compound binding to the IL-2 labeled cell of the chip. The sensorgrams are modified by subtracting the sensorgrams for the appropriate compound dilutions over cell 1 (a blank cell). This subtraction step removes any RU changes that might occur due to non-specific interactions between the compound and the chip itself or refractive changes in the buffer. Finally, the eight sensorgrams produced from the compound dilution series are zeroed at the average of their starting RUs. Then the sensorgram produced by injecting DMSO only is subtracted to reveal the final sensorgrams used to determine relative binding.
To determine KdSPR for the compound, the compound concentration is plotted on the X-axis, while the fraction bound at the plateau of the injection is plotted on the Y-axis. The curve is then analyzed via non-linear regression analysis (Kaleidagraph, Synergy Software). […] The concentration chosen is where the RUs remain constant at the top of the binding curve and thus the IL-2:2c ratio is 1. For 2c, this concentration is 100 μM.
A second compound is then run, this time in both the presence and absence of 2c. […]

[2] = target: T2, human interleukin-1 receptor type 1 (Homo sapiens, UniProt P14778); assay: SPR inhibition of binding of soluble IL-1 R to an immobilized peptide ligand (Examples 12-13); conditions: for IC50: inhibition of binding of IL-1 R to the immobilized peptide […]
T2 construct: soluble human II-1 R was allowed to flow over the surface; made in house; host or cells: baculovirus-infected TN-5B1-4 insect cells (High Five)
T2 sequence (P14778 18-336 limits assumed): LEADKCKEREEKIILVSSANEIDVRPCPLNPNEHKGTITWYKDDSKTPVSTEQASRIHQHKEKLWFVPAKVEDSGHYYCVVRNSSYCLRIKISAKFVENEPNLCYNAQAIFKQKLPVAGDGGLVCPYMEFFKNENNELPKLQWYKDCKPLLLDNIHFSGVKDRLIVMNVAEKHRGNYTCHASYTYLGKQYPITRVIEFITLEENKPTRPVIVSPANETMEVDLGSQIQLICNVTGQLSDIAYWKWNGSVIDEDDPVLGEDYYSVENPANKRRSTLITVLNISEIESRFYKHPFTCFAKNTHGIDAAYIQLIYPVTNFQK
Procedure: A CM5 sensor chip (Biacore-BR-1000-14) is docked in a Biacore 2000 SPR device. The chip is then normalized using standard Biacore protocol with 70% glycerol. The chip is next equilibrated in PBS for approximately 1 hr at 20,L/min flow rate. The dextran surface of the chip is activated through an NHS/EDC coupling. This coupling is done using an amine coupling kit (Biacore—BR-100-50) containing N-hydroxysuccinimide (NHS 11.5 mg/mL) and N-ethyl-N′-(3-dimethylaminopropyl) carbodiimide hydrochloride (EDC 75 mg/mL). The two reagents are mixed in a 1:1 ratio and 35 μL of the mixture are injected at 5 μL/min. The activated chip is then modified with a cysteine reactive group, to enable labeling of the CM5 chip with cysteine chemistry. A solution of 100 μM MTSL in PBS is injected at 2 μL/min for 10 min over the activated cell.
A peptide that is a nanomolar inhibitor for the protein of interest was synthesized at Synpep, to include a cysteine residue at the N-terminus. This peptide was brought up to a 100 μM solution in PBS. This solution is then injected over the activated cell at 2 μL/min for 10 min. After injection one measures the change in RUs by marking the RUs at t=0 and t=final and subtracting. This gives the total RU change, which is related to the total mass of peptide successfully coupled to the CM5 surface. The sensorgram is then altered to flow across all four cells on the CM5 chip at 5 μL/min PBS. A solution of 1 M ethanolamine hydrochloride-NaOH pH 8.5 (Amine coupling kit, Biacore—BR-100-50) is injected at […] for 7 min. The peptide is immobilized at a density of 40 fmol/mm^2. The chip is equilibrated overnight in PBS+0.05% azide at 20 μL/min.
IL-1 R is expressed in baculovirus-infected TN-5B1-4 insect cells (High Five) and purified using standard procedures. To determine an appropriate constant concentration of protein to use, a protein titration is first performed. A dilution series of the protein is typically performed to produce seven protein solutions having final concentrations of from 300 nM, 100 nM, 33 nM, 11 nM, 3.7 nM, 1.2 nM, and 0.41 nM in PBS+0.05% azide, and an eighth solution is used as a PBS-only baseline. The protein solutions are injected from lowest concentration to highest at 40 μL/min for 1 min. The SPR software method includes a 1 min wash before injection, the injection and then a 3 min wash after the injection.
These dilutions series are analyzed by BIAevaluation software version 3.0. Sensorgrams are plotted for protein binding to the immobilized peptide cell. The sensorgrams are modified by subtracting the sensorgrams for the appropriate protein dilutions over cell 1 (a blank cell). This subtraction step removes any RU changes that might occur due to nonspecific interactions between the protein and the chip itself or refractive changes in the buffer. Finally, the eight sensorgrams produced from the protein dilution series are zeroed at the average of their starting RUs. Then the sensorgram produced by injecting PBS only is subtracted to reveal the final sensorgrams used to determine relative binding.
To determine KdSPR for the protein, the protein concentration is plotted on the X-axis, while the fraction bound at the plateau of the injection is plotted on the Y-axis. The curve is then analyzed via nonlinear regression analysis (Kaleidagraph, Synergy Software). […] One wants to keep protein constant and non-saturated to be assured of not having an excess of protein in solution. For this protein, 30 nM was chosen. […]

T1 sequence (P60568 21-153): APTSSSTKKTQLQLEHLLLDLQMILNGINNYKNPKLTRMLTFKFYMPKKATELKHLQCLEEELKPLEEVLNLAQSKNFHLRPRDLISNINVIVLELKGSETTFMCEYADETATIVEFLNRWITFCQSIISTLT

COCCNC(=O)[C@@H]1CCCN1C(=O)c1cc2ccccc2s1 [Compound 1]
Kd ([1]; FIG. 7 sensorgrams, 0-500 μM of compound over immobilized IL-2, read-out: apparent Kd): ~175 µM | IC50 ([1]; constant 50 μM of 2c, immobilized IL-2, FIG. 9, read-out: IC50 inhibiting the binding of 2c): 185 µM | Kd ([1]; dose-response plot of FIG. 9, absence of 2c, read-out: Kd for binding IL-2): 210 µM

N=C(N)N[C@@H](C(=O)NCC(=O)N1CCC(c2cc(-c3ccc(O)cc3Cl)[nH]n2)CC1)C1CCCCC1 [Compound 16]
Kd ([1]; Example 11, immobilized interleukin-2, read-out: apparent Kd in SPR experiments): 5 µM

COCC(=O)NC1CSc2ccccc2C1=O (stereo not shown) [Compound 20]
Kd,SPR IL-2 ([1]; immobilized IL-2, no other compound): Inactive

NC(=O)CC[C@H](NC(=O)[C@H](Cc1ccc(OP(=O)(O)O)cc1)NC(=O)[C@H](Cc1ccc2ccccc2c1)NC(=O)Cc1ccc(O)cc1)C(=O)N1CCN(C(=O)Cc2ccc(O)cc2)CC1 [Compound 21]
IC50 [2]: 10.5 µM

NC(=O)c1cccc(NC(=O)CCC(=O)NCCc2c[nH]c3ccccc23)c1 [Compound 22]
IC50SPR ([2]; inhibition of binding of IL-1 R to the immobilized peptide CETPFTWEESNAYYWQPYALPL): Inactive

NC(=O)c1cccc(NC(=O)CCC(=O)Nc2ccc3[nH]ccc3c2)c1 [Compound 23]
IC50 [2]: 560 µM

NC(=O)Cc1cccc(NC(=O)c2cccc(NC(=O)c3cc4cccc(O)c4cc3O)c2)c1 [Compound 24]
IC50 [2]: 95 µM

NC(=O)Cc1ccc(NC(=O)NCc2ccc(C3=CN=C(N)NC3)cc2)cc1 [Compound 25]
IC50 [2]: 240 µM
